Active and inactive are the calls of the source. The rule behind the calls is not given here.
Experiments:
A549 [1] = assay: Inhibition of colony formation in human A549 cells at 2 uM; type: functional, cell-based
HeLa = assay: Antiproliferative activity against human HeLa cells assessed as inhibition of cell growth incubated for 72 hrs by CCK-8 assay; type: functional, cell-based
[2] = AUC (0-infinity) in Sprague-Dawley rat at 3 mg/kg,iv by LC-MS/MS analysis; type: ADME, organism-based; set-up: dose 3 mg/kg, route iv; conditions: in vivo
A549 [3] = assay: Antitumor activity against human A549 cells xenografted in BALB/c mouse assessed as reduction in KI67 positive cells at 20 mg/kg,ip administrated for 15 days; type: functional, organism-based; conditions: time 15.0 day
[4] = Intrinsic clearance in human liver microsomes measured upto 60 mins in presence of NADPH by LC/MS/MS analysis; type: ADME, Microsome; conditions: read-out: CLH
CYP2C9 = CYP2C9 (Homo sapiens, UniProt P11712); assay: Inhibition of CYP2C9 (unknown origin) at 10 uM incubated for 20 mins in presence of NADPH by LC/MS/MS analysis relative to control; type: ADME
[5] = target: T1, Lysine-specific histone demethylase 1A (Homo sapiens, UniProt O60341); assay: Inhibition of LSD1 in human A549 cells assessed as increase in H3K4me2 protein level at 1 to 4 uM incubated for 72 hrs by Western blotting assay; type: cell-based; conditions: dose 1-4 µM
A549 [6] = assay: Induction of apoptosis in human A549 cells assessed as downregulation of mTOR phosphorylation incubated for 72 hrs by Western blotting assay; type: functional, cell-based
A549 [7] = assay: Induction of apoptosis in human A549 cells at 4 uM incubated for 48 hrs by Annexin V-FITC/PI staining based flow cytometry method; type: functional
in vitro = conditions: human, THLE-2 cells
Description: Antiproliferative activity against human THLE-2 cells assessed as inhibition of cell growth incubated for 72 hrs by CCK-8 assay

CYP2C19 = CYP2C19 (Homo sapiens, UniProt P33261); assay: Inhibition of CYP2C19 (unknown origin) at 10 uM incubated for 20 mins in presence of NADPH by LC/MS/MS analysis relative to control; type: ADME
[8] = target: T1, Lysine-specific histone demethylase 1A
Description: Inhibition of recombinant human LSD1 using fluorometric substrate by HRP based fluorimeter microplate reader assay

NCI-H460 = assay: cells; conditions: Homo sapiens, NCI-H460, 72 h
Description: Antiproliferative activity against human NCI-H460 cells assessed as inhibition of cell growth incubated for 72 hrs by CCK-8 assay

A549 [9] = assay: Induction of apoptosis in human A549 cells assessed as downregulation of BCL-2 at 1 to 4 uM incubated for 72 hrs by Western blotting assay; type: functional, cell-based; conditions: dose 1-4 µM
[10] = Tmax in Sprague-Dawley rat at 10 mg/kg,po by LC-MS/MS analysis; type: ADME, organism-based; conditions: in vivo
A549 [11] = assay: Antitumor activity against human A549 cells xenografted in BALB/c mouse assessed as reduction in KI67 positive cells at 10 mg/kg,ip administrated for 15 days; type: functional, organism-based; conditions: time 15.0 day
[12] = AUC (0-t) in Sprague-Dawley rat at 3 mg/kg,iv by LC-MS/MS analysis; type: ADME, organism-based; set-up: dose 3 mg/kg, route iv; conditions: in vivo
[13] = target: T1, Lysine-specific histone demethylase 1A; assay: Reversible inhibition of LSD-1 (unknown origin) by jump dilution assay
[14] = Cmax in Sprague-Dawley rat at 10 mg/kg,po by LC-MS/MS analysis; type: ADME, organism-based; set-up: dose 10 mg/kg, route po; conditions: in vivo
A549 [15] = assay: Antitumor activity against human A549 cells xenografted in BALB/c mouse assessed as reduction in tumor growth at 10 mg/kg,ip administrated for 15 days; type: functional, organism-based; conditions: time 15.0 day
[16] = target: Voltage-gated inwardly rectifying potassium channel KCNH2 (Homo sapiens, UniProt Q12809); assay: Inhibition of human ERG stably expressed in CHO cells by patch clamp assay; type: toxicity, cell-based
A549 [17] = assay: Antitumor activity against human A549 cells xenografted in BALB/c mouse assessed as appearance of pyknosis at 10 mg/kg,ip administrated for 15 days; type: functional, organism-based; conditions: time 15.0 day
[18] = Clearance in Sprague-Dawley rat at 3 mg/kg,iv by LC-MS/MS analysis; type: ADME, organism-based; conditions: in vivo
[19] = target: T1, Lysine-specific histone demethylase 1A; assay: Inhibition of LSD1 (unknown origin) assessed as inhibition constant using H3K4me2 as substrate by Lineweaver-Burk plot analysis
[20] = target: T2, Amine oxidase [flavin-containing] B (Homo sapiens, UniProt P27338)
T2 sequence (P27338 whole entry): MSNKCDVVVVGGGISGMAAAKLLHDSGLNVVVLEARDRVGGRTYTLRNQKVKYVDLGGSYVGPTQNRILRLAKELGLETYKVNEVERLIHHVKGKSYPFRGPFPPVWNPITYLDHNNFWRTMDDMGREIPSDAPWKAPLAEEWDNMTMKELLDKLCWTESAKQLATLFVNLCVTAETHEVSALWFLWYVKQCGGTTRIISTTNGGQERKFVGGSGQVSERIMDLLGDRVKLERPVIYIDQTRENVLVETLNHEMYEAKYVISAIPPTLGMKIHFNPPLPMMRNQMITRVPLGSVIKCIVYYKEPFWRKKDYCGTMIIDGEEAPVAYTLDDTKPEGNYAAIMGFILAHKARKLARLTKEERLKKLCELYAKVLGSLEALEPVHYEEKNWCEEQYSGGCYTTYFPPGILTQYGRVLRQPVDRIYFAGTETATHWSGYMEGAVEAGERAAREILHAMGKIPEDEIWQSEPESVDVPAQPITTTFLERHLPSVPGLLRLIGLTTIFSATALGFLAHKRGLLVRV
Description: Inhibition of recombinant MAO-B (unknown origin) incubated for 60 mins by luminescence based flow cytometry

CYP1A2 = target: T3, CYP1A2 (Homo sapiens, UniProt P05177); assay: Inhibition of CYP1A2 (unknown origin) at 10 uM incubated for 20 mins in presence of NADPH by LC/MS/MS analysis relative to control; type: ADME
T3 sequence (P05177 whole entry): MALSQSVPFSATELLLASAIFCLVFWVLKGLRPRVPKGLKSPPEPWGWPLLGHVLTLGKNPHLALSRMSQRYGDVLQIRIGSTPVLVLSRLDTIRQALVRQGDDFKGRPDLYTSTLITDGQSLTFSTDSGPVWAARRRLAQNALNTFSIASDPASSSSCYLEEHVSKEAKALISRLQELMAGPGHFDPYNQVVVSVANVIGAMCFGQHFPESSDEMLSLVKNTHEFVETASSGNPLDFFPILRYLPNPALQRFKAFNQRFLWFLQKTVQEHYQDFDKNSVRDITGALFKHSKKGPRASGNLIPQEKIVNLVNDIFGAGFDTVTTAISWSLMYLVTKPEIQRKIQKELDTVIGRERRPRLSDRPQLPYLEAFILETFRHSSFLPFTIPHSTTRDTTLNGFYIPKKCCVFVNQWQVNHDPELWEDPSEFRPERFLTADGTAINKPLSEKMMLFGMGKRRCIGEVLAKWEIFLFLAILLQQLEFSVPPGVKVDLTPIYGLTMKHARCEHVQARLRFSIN

A549 [21] = assay: Antitumor activity against human A549 cells xenografted in BALB/c mouse assessed as appearance of pyknosis at 20 mg/kg,ip administrated for 15 days; type: functional, organism-based; conditions: time 15.0 day
[22] = Half life in human liver microsomes measured upto 60 mins in presence of NADPH by LC/MS/MS analysis; type: ADME, Microsome
[23] = Metabolic stability in human liver microsomes assessed as compound remaining measured upto 60 mins by LC/MS/MS analysis; type: ADME, Microsome; conditions: read-out: Stability
[24] = Metabolic stability in human liver microsomes assessed as compound remaining measured upto 60 mins in presence of NADPH by LC/MS/MS analysis; type: ADME, Microsome; conditions: read-out: Stability

CYP2C19, sequence (P33261 whole entry): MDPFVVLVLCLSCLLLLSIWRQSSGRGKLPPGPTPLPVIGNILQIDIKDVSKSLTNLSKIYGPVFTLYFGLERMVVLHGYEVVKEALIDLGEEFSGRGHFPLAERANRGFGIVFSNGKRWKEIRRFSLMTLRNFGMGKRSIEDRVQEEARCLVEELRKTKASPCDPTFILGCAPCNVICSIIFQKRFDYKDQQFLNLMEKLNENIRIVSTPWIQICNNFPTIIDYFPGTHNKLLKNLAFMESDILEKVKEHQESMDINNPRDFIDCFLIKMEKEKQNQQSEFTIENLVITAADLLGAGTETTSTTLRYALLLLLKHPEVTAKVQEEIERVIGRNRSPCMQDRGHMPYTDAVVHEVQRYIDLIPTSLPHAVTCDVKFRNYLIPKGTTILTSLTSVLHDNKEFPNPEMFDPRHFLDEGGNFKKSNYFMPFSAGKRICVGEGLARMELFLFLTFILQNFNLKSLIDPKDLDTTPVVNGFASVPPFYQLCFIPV
CYP2C9, sequence (P11712 whole entry): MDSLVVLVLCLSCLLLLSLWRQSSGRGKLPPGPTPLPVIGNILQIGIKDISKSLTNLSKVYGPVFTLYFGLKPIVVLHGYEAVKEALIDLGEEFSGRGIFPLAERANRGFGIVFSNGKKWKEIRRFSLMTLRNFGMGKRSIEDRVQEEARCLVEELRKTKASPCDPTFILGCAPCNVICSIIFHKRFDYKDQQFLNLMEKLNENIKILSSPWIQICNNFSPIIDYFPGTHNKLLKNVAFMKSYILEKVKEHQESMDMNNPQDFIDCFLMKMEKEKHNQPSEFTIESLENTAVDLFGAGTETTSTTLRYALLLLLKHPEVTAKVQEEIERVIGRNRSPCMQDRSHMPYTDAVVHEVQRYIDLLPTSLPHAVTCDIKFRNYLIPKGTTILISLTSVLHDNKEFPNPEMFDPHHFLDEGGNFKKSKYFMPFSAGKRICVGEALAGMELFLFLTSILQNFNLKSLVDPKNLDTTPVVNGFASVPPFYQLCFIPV
Voltage-gated inwardly rectifying potassium channel KCNH2, sequence (Q12809 whole entry): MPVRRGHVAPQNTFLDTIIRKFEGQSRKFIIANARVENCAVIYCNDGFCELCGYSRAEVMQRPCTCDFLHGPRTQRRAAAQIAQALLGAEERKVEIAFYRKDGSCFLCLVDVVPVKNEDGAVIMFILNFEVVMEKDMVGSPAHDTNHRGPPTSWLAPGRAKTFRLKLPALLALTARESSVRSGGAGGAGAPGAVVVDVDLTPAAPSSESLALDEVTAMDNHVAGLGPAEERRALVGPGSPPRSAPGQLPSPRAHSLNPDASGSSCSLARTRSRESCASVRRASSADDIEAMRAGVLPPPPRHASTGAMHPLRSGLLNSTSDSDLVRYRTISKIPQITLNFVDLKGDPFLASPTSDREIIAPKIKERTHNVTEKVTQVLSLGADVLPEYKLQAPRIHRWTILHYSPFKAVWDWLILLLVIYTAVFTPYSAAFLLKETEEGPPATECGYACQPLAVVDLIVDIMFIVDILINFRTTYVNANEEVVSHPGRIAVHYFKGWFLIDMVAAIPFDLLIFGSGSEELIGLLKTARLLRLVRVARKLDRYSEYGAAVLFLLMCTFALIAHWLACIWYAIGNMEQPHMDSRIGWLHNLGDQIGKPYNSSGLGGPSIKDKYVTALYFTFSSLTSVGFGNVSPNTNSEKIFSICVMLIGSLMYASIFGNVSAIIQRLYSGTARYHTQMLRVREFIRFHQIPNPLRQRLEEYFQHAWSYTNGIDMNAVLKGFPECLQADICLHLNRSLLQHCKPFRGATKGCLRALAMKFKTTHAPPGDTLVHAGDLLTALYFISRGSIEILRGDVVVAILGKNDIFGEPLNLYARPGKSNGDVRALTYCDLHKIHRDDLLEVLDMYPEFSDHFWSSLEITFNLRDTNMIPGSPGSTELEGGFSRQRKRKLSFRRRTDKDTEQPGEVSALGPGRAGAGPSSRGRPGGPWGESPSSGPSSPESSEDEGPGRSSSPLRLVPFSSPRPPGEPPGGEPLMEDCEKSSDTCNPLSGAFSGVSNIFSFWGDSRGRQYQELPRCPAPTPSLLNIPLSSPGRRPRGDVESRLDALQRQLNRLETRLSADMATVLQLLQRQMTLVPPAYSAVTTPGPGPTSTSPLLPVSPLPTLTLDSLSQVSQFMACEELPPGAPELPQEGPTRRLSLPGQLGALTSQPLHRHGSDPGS

**Q.** For `Cc1ccc(-c2cc3c(cc2-c2ccc(C#N)cc2)c(C(=O)N2CCC(N)CC2)cn3S(=O)(=O)c2ccc(F)cc2)cc1`, which inhibition (A549 [1]) is on record?
**A.** Active

**Q.** What about the IC50 (HeLa) of the same compound?
**A.** 3.3 µM

**Q.** What about the AUC(0-inf) [2] of the same compound?
**A.** 1.45 µg·h/mL

**Q.** And the Activity (A549 [3])?
**A.** Active

**Q.** What about the microsomal CLint [4] of the same compound?
**A.** 9.6 µL/min/mg

**Q.** What about the inhibition at 20 min, 10 µM (CYP2C9) of the same compound?
**A.** 47.7%

**Q.** And the inhibition [5]?
**A.** Dose-Dependent Effect

**Q.** What about the Activity (A549 [6]) of the same compound?
**A.** Active

**Q.** And the Activity (A549 [7])?
**A.** 52.5%

**Q.** What about the IC50 at 72 h (in vitro) of the same compound?
**A.** 3.1 µM

**Q.** What about the inhibition at 20 min, 10 µM (CYP2C19) of the same compound?
**A.** 17.5%

**Q.** And the IC50 [8]?
**A.** 0.05 µM

**Q.** And the IC50 (NCI-H460)?
**A.** 3.8 µM

**Q.** And the Activity (A549 [9])?
**A.** Dose-Dependent Effect

**Q.** What about the Tmax [10] of the same compound?
**A.** 4 h

**Q.** And the Activity (A549 [11])?
**A.** Active

**Q.** And the AUC(0-t) [12]?
**A.** 1.32 µg·h/mL

**Q.** What about the inhibition [13] of the same compound?
**A.** Active

**Q.** And the Cmax [14]?
**A.** 0.0465 µg/mL

**Q.** And the Activity (A549 [15])?
**A.** Active

**Q.** And the IC50 [16]?
**A.** 5.11 µM

**Q.** What about the Activity (A549 [17]) of the same compound?
**A.** Active

**Q.** And the clearance [18]?
**A.** 2.13 L/h/kg

**Q.** What about the Ki [19] of the same compound?
**A.** 0.155 µM

**Q.** What about the IC50 [20] of the same compound?
**A.** 0.72 µM

**Q.** What about the inhibition at 20 min, 10 µM (CYP1A2) of the same compound?
**A.** 0%

**Q.** And the Activity (A549 [21])?
**A.** Active

**Q.** And the half-life [22]?
**A.** 2.42 h

**Q.** And the remaining at 1 h [23]?
**A.** 102%

**Q.** What about the remaining at 1 h [24] of the same compound?
**A.** 79.2%

Source: ChEMBL document CHEMBL5352388 (Eur J Med Chem, 2022)
